Test results published in article PMC3509171 (Nature chemical biology, 2012).
Substitutions are numbered along the chain they refer to.

Tests used:
hOGT (312-1031) [1] = biological target: T1, hOGT (312-1031) (Homo sapiens, UniProt O15294, H568F); experiment: surface plasmon resonance, […] equilibrium fit; assay type: binding
T1 sequence (O15294 322-1041 H568F): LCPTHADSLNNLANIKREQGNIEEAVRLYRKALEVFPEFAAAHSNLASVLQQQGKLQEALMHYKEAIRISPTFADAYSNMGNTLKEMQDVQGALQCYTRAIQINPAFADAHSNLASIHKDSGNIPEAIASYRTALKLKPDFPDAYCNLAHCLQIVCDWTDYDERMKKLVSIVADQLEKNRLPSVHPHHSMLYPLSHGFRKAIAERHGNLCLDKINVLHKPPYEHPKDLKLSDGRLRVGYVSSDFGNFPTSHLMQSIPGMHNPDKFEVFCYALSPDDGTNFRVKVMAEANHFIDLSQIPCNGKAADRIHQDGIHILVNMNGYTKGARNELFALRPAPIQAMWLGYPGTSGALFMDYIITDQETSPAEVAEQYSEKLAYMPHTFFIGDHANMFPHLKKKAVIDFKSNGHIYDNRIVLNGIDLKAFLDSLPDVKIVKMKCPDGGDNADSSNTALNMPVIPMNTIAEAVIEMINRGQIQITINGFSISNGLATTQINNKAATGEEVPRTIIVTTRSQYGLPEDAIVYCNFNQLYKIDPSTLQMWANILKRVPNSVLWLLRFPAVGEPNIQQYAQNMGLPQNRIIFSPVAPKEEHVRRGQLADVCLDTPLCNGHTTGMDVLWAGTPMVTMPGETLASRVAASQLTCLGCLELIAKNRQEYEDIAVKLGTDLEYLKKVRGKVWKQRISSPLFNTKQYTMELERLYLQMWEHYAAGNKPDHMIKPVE

hOGT (312-1031) [2] = biological target: T2, hOGT (312-1031) (Homo sapiens, UniProt O15294); experiment: surface plasmon resonance, […] equilibrium fit; assay type: binding
T2 sequence (O15294 322-1041): T1 sequence (O15294 322-1041 H568F) with F247H

hOGT (312-1031) [3] = biological target: T3, hOGT (312-1031) (Homo sapiens, UniProt O15294, D564N); experiment: surface plasmon resonance, […] equilibrium fit; assay type: binding
T3 sequence (O15294 322-1041 D564N): T1 sequence (O15294 322-1041 H568F) with D243N, F247H

hOGT (312-1031) [4] = biological target: T4, hOGT (312-1031) (Homo sapiens, UniProt O15294, K852M); experiment: surface plasmon resonance, […] equilibrium fit; assay type: binding
T4 sequence (O15294 322-1041 K852M): T1 sequence (O15294 322-1041 H568F) with F247H, K531M

hOGT (312-1031) [5] = biological target: T2, hOGT (312-1031); experiment: in vitro O-GlcNAc transfer inhibition; assay type: biochemical

SMILES | Kd (hOGT (312-1031) [1]) [µM] | Kd (hOGT (312-1031) [2]) [µM] | Kd (hOGT (312-1031) [3]) [µM] | Kd (hOGT (312-1031) [4]) [µM] | IC50 (hOGT (312-1031) [5]) [µM]
O=c1ccn([C@@H]2O[C@H](COP(=O)(O)OP(=O)(O)O)[C@@H](O)[C@H]2O)c(=O)[nH]1 [UDP] | 0.7 ± 0.1 |  | 0.6 ± 0.03 |  | 
CC(=O)N[C@@H]1[C@@H](O)[C@H](O)[C@@H](CO)S[C@@H]1OP(=O)(O)OP(=O)(O)OC[C@H]1O[C@@H](n2ccc(=O)[nH]c2=O)[C@H](O)[C@@H]1O [compound 1, UDP-5S-GlcNAc] |  |  |  | 5.7 ± 0.1 | 
O=C(N[C@H]1[C@@H](OP(=O)(O)OP(=O)(O)OC[C@H]2O[C@@H](n3ccc(=O)[nH]c3=O)[C@H](O)[C@@H]2O)O[C@H](CO)[C@@H](O)[C@@H]1O)C(F)(F)F [compound 2, UDP-GlcNAcF3] |  | 12.1 ± 0.1 |  | 29.3 ± 0.1 | 

Further molecules by falling Kd (hOGT (312-1031) [4]), results first:

Kd (hOGT (312-1031) [1]) [µM] | Kd (hOGT (312-1031) [2]) [µM] | Kd (hOGT (312-1031) [3]) [µM] | Kd (hOGT (312-1031) [4]) [µM] | IC50 (hOGT (312-1031) [5]) [µM] | SMILES
42.3 ± 0.4 | 16.1 ± 0.1 | 32.1 ± 0.3 | 4.7 ± 0.1 |  | CC(=O)N[C@H]1[C@@H](OP(=O)(O)OP(=O)(O)OC[C@H]2O[C@@H](n3ccc(=O)[nH]c3=O)[C@H](O)[C@@H]2O)O[C@H](CO)[C@@H](O)[C@@H]1O [UDP-GlcNAc]
 | 11.3 ± 0.1 |  | 2.8 ± 0.1 | 25 | CC(=O)N[C@H]1[C@@H](OP(=O)(O)O[P@](O)(=S)OC[C@H]2O[C@@H](n3ccc(=O)[nH]c3=O)[C@H](O)[C@@H]2O)O[C@H](CO)[C@@H](O)[C@@H]1O [compound 4, RP-αS-UDP-GlcNAc]
